Paper PMC7570852, “Ruthenium(II)/(III) DMSO-Based Complexes of 2-Aminophenyl Benzimidazole with In Vitro and In Vivo Anticancer Activity” (Molecules, 2020)
In brackets after ≈: the same amount, converted by molar mass. Several values for one entry are separate records, joined by “and”; a condition that tells them apart may be missing. Identical values can stand only once. Like-named read-outs stand apart in the source and are kept apart here.

Assays:
[1] = test system: human breast cancer (MCF7) cells; experiment: MTT cell viability assay, MCF7; format: cell-based; details: for IC50: read-out: IC50 MCF-7
Experimental: (§1) The cytotoxic effect of the Hapbim ligand and its complexes (1) and (2) on human breast cancer (MCF7), human colorectal cancer (Caco2), and human normal liver (THLE-2) cell lines was evaluated by the MTT assay. The cells were cultured in a 96-well plate (1 × 10^4 cells/well, 100 μL/well) containing DMEM medium provided with 10% fetal bovine serum, and 1% penicillin/streptomycin. Then, the cells were incubated at 37 °C for 24 h in a CO2 incubator under 5% CO2, 95% air until reaching a confluence of 70–80%. A 20 μL volume of each compound at different concentrations (from 5 to 400 μM for the cancer cell and from 600 to 1000 μM for the normal cells) was added and the cells were re-incubated for a further 24 h. After the incubation period, the cells were incubated again with 5 mg/mL of MTT for 4 h and then the medium was replaced with 100 μL DMSO and vortexed for 20 min. Finally, the absorbance was recorded at 570 nm using the microplate reader. […] To calculate the cell inhibition percentage, the following equation was used:% Cell inhibition = 100 − % cell viability ((At − Ab)/(Ac − Ab)) × 100%)(4) where At is the absorbance value of tested compound; Ab is the absorbance value of blank; Ac is the absorbance value of the control.

[2] = test system: human colorectal cancer (Caco2) cells; experiment: MTT cell viability assay, Caco2; format: cell-based; details: for Therapeutic index: IC50 of THLE-2 cell/IC50 of Caco2: in vitro
Experimental: as §1

[3] = test system: Ehrlich ascites carcinoma (EAC) cells; set-up: method as in PMID 28599251; details: literature comparison; cited from earlier work
[4] = Cyclic voltammetry; format: physicochemical; details: 10^−3 M in CH2Cl2/DMSO, 0.1 M (Bu4N)PF6, scan rate 50 mVs^−1
Experimental: Elemental analyses (C, H, N) were performed by the Microanalysis unit in the Department of Chemistry at Simon Fraser University. Infrared spectra (FTIR) were performed on a JASCO 4100 FTIR spectrophotometer in the 4000–400 cm^−1 range using a KBr disc. NMR (^1H and ^13C) spectra were recorded in DMSO-d6 solvent using a Bruker 400 MHz instrument. The 2D NMR analysis (^1H–^1H COSY) was performed on a Jeol 500 MHz NMR, at Mansoura University. ESI/APCI HRMS data were acquired on a Thermo Scientific Exactive Plus Orbitrap mass spectrometer. Electronic spectra (in DMSO, 200–900 nm) were measured on a JASCO 630 V spectrophotometer. Emission spectra of the complexes were measured on a Jenway model 6285 spectrofluorimeter for excitation and emission spectra, 200–700 nm. The magnetic susceptibility of the complexes was measured on a Johnson Matthey magnetic susceptibility balance. […] A microplate reader (StatFax-2100, Awareness Technology, Inc., Palm City, FA, USA), Attune flow cytometer (Applied Biosystems, Foster City, CA, USA), Quawell nanodrop Q5000 (San Jose, CA, USA), StepOnePlus real time PCR system (Applied Biosystems, Foster City, CA, USA), and CO2 incubator (NuAire In-Vitro Cell, Plymouth, MN, USA) were used in biological studies.

[5] = Solution stability by UV-Vis spectroscopy; format: physicochemical; details: 4% DMSO, 96% PBS, pH 7.4, over 24 h
Experimental: Stability studies of complexes (1) and (2) were carried out by UV-Vis spectroscopy in the 200–900 nm range. […] The electronic spectra for the solutions were measured over 24 h.

[6] = test system: CT DNA (EB-DNA adduct); experiment: Ethidium bromide (EB-DNA) competitive fluorescence assay; format: binding, calf; details: [DNA] = [EB] = 5 μM
Experimental: The binding affinity of the metal complexes towards CT DNA was evaluated using competitive fluorescence studies. CT DNA pretreated with ethidium bromide (EB) ([DNA] = [EB] = 5 μM) in Tris-HCl/NaCl buffer (pH = 7.2) was incubated with the complexes in concentrations of 0–90 μM. […] The quenching of EB-DNA adduct fluorescence was followed by monitoring the emission spectra in the wavelength range of 530–650 nm. Upon addition of the metal complexes to the EB-DNA adduct, the quenching binding constant (Kq) at λ = 585 nm is determined from the Stern-Volmer Equation (2):I0/I = 1 + Kq[Q](2) where I0 and I are the fluorescence intensities of EB-DNA in the […] of the metal complexes, respectively, [Q] is the concentration of the tested compounds, and Kq is the quenching constant calculated from the slope of the straight line obtained from plotting Io/I vs. [Q]. In addition, the apparent binding constant can be calculated from Equation (3):KEB[EB] = Kapp[Q](3) where KEB = 1 × 10^7 M^−1 [EB] is the ethidium bromide concentration (5 μM) and [Q] is the concentration of the quencher that provides a 50% intensity reduction of the initial EB-DNA adduct.

Nc1ccccc1-c1nc2ccccc2[nH]1 [Hapbim, 2-aminophenyl benzimidazole]
IC50 ([1]; Homo sapiens, MCF7, 24 h): 61 µg/mL and 290 µM | IC50 ([2]; Homo sapiens, Caco-2, MTT, 24 h): 80 µg/mL and 380 µM | Therapeutic index: IC50 of THLE-2 cell/IC50 of Caco2 [2]: 14.2

CN(Cc1cnc2nc(N)nc(N)c2n1)c1ccc(C(=O)N[C@@H](CCC(=O)O)C(=O)O)cc1 [methotrexate]
IC50 against EAC cells [3]: 98 ± 2 µg/mL (≈ 216 µM)

N.N.[Cl][Pt][Cl] [Cisplatin, reference compound]
IC50 MCF-7 ([1]; 24 h): 22 ± 1 µg/mL | IC50 ([1]; 24 h): 73 ± 5 µM

[Ru(II)Cl2(DMSO)2(Hapbim)] [(1)]
E1/2 (Ru(II)/Ru(III) redox couple) [4]: 615 mV | IC50 MCF-7 ([1]; 24 h): 170 ± 10 µg/mL | IC50 ([1]; 24 h): 320 ± 20 µM | IC50 ([2]; MTT, 24 h): 290 ± 20 µM | IC50 Caco2 ([2]; MTT, 24 h): 155 ± 9 µg/mL | Therapeutic index: IC50 of THLE-2 cell/IC50 of Caco2 [2]: 6.4 | solution stability (UV-Vis spectral change) [5]: remain relatively unchanged over the first two hours | Kapp (apparent binding constant) ([6]; KEB = 1 × 10^7 M^−1): 1.08 ± 0.11 × 10^7 M^−1 | Kq (quenching constant) ([6]; Stern-Volmer, 585 nm): 1.96 ± 0.04 × 10^3 M^−1
